Measured values reported in patent US11813362B2, “Film-coated tablet comprising a triazine derivative for use in the treatment of diabetes” (Poxel, priority 2018, dated 2023).

Experiment: Compatibility tests of imeglimin with excipients as 50:50 (w/w) binary mixture
Type: physicochemical
Description: In a preferred embodiment, the binder consists of hydroxypropylcellulose. In other embodiments, it may comprise at least one other binder in addition to hydroxypropylcellulose, which may be selected from: microcrystalline cellulose, methylcellulose, ethylcellullose, hydroxyethylcellulose, hydroxypropylmethylcellulose (hypromellose), sodium carboxymethylcellulose (carmellose), gelatin, gum arabic, dextrin, maltodextrin, pregelatinized starch, gelatin, acacia gum, guar gum, sodium alginate, alginic acid, carbomer, polyvinyl alcohol and mixtures thereof. […] The binder(s) may represent from 1.5 to 4.5 wt. %, preferably from 3.5 to 4.5 wt. %, relative to the total weight of the tablet.
In addition to the binder(s), the tablet of this invention comprises at least one disintegrant. […] The disintegrant may thus be selected from the group consisting of: sodium croscarmellose, sodium carboxymethyl starch, hydroxypropylcellulose, calcium carboxymethylcellulose, microcrystalline cellulose, calcium carbonate, magnesium aluminum silicate, sodium starch glycolate, pregelatinized starch, sodium alginate, alginic acid, guar gum and their mixtures, for instance. Preferably, the disintegrant comprises, or preferably is, sodium croscarmellose. The disintegrant(s) may represent from 1.5 to 3 wt. %, preferably from 1.8 to 2.2 wt. %, relative to the total weight of the tablet.

formation of degradation products (compatibility) (50:50 (w/w) binary mixture with crospovidone): degradation products are formed
formation of degradation products (compatibility) (50:50 (w/w) binary mixture with polyvinylpyrrolidone (povidone)): degradation products are formed
SMILES: C[C@@H]1NC(=N)N=C(N(C)C)N1.Cl [imeglimin, (+)-2-amino-3,6-dihydro-4-dimethylamino-6-methyl-1,3,5-triazine hydrochloride]
